Data: patent US10913728B2, “O-substituted hydroxamic acids” (The Johns Hopkins University, priority 2016, dated 2021)
Marks after values point to notes of the source that are not given here.

How the values were obtained:
[1] = Nitroxyl production via N2O quantification in the headspace (GC), relative to Angeli's salt standard; type: physicochemical; parameters: key to % HNO: Stable; settings: for % HNO: N2O yield relative to AS standard, phosphate buffer with DTPA, 37° C.
Source text: Nitrous oxide (N2O) is produced via the dimerization and dehydration of HNO, and is the most common marker for nitroxyl production (Fukuto et al., Chem. Res. Toxicol. 18:790-801 (2005)). […] Using either nitrous oxide gas or Angeli's salt (“AS”) as a standard, the relative amounts of N2O released from compounds of the disclosure is examined via gas chromatography (“GC”) headspace analysis.
Another procedure for determining N2O released from compounds of the disclosure is as follows. A Varian CP-3800 instrument equipped with a 1041 injector, electron capture detector, and a 25 m 5 Å molecular sieve capillary column was applied for the analysis of nitrous oxide (N2O). Grade 5.0 nitrogen was used as both the carrier (8 mL/min) and the make-up (22 mL/min) gas. For all measurements, the column oven temperature was kept constant at 150° C., and the injector oven and the detector oven were held at 200° C. and 300° C., respectively. A 100 μL gastight syringe with a sample-lock was used for all gas injections. Samples were prepared in 6 mL Wheaton Clr headspace vials with volumes pre-measured for sample uniformity (actual vial volume ranges from 5.8-6.3 mL). Vials were charged with 3 mL of phosphate buffer containing the metal chelator, diethylenetriaminepentaacetic acid (DTPA), and fit with rubber septa and 20 mm aluminum seals. The vials were purged with argon and equilibrated for at least 10 minutes at 37° C. in a dry block heater. A stock solution of Angeli's salt (AS) was prepared in 10 mM sodium hydroxide, and compounds of the disclosure (10 mM) were prepared in acetonitrile and used immediately after preparation. 30 μL of the stock solutions was transferred into vials using a gastight syringe, yielding final concentrations of 0.5, 0.1, and 0.02 mM. Substrates were then incubated long enough to ensure complete decomposition and equilibration of N2O with the headspace. Depending on the concentration of the compound of the disclosure, 60 or 20 μL of the headspace was sampled and injected three times using a gastight syringe with a sample lock. The N2O yield was averaged and reported relative to the AS standard.

[2] = 1H NMR protocol: decomposition of the compounds and relative product yields in aqueous solution; type: physicochemical; settings: for Carboxylic Acid relative product yield / NHPY relative product yield / PY (corresponding pyrazolone) relative product yield: decomposition in aqueous solution, 1H NMR
Source text: A ^1H NMR spectroscopy protocol was used to examine the decomposition of the compounds of the disclosure and measure the relative product yields in aqueous solution (Guthrie, D. A.; Ho, A.; Takahashi, C. G.; Collins, A.; Morris, M.; Toscano, J. P. J. Org. Chem. 2015, 80, 1338-1348; and Guthrie, D. A.; Nourian, S.; Takahashi, C. G.; Toscano, J. P. J. Org. Chem. 2015, 80, 1349-1356).

[3] = UV-Vis protocol: decomposition kinetics, donor half-lives at pH 7.4 and 37° C.; type: physicochemical; settings: buffer, pH 7.4, 37° C.
Protocol: A UV-VIS protocol was used to determine the decomposition kinetics of Compounds 1-5. According to this protocol, decomposition of the test compound was monitored by UV-Vis spectroscopy to measure donor half-lives at pH 7.4 and 37° C. (Guthrie, D. A.; Kim, N. Y.; Siegler, M. A.: Moore, C. D.; Toscano, J. P. J. Am. Chem. Soc. 2012, 134, 1962-1965; and Guthrie, D. A.; Ho, A.; Takahashi, C. G.; Collins, A.; Morris, M.; Toscano, J. P. J. Org. Chem. 2015, 80, 1338-1348).

[4] = Stability of NHPY-1 incubated with PY-2 by 1H NMR spectroscopy; type: physicochemical; settings: 1H NMR spectroscopy at pH 7.4 and 10
Source text: Based on reactivity studies of bis-heteroatom-substituted amides (Glover, S. A. In The Chemistry of Hydroxylamines, Oximes, and Hydroxamic Acids, Part 2; Rappoport, Z., Liebman, J. F., Eds.; John Wiley & Sons: Chichester, West Sussex, 2009, p 839-923), the formation of NHPY-1 may be possible through the direct attack of PY-2 on the amide nitrogen of the hydroxamic acid moiety of […] (Scheme 4).

[5] = cited from earlier work
[6] = 1H NMR mechanistic study: decomposition of Compound 1 in the presence of 3,4-dimethyl-1-phenylpyrazolone (PY-2); type: physicochemical; settings: 0.5 mM compound with 0.5 mM PY-2, 0.25 M phosphate buffer, 0.2 mM DTPA, pH 7.4, 37° C., argon
Protocol: A ^1H NMR Spectroscopy Protocol was used to confirm the formation of nitroso carbonyls following decomposition of Compound 1. In this protocol, 0.5 mM Compound 1 was incubated in the presence of 0.5 mM 3,4-dimethyl-1-phenylpyrazolone in 0.25 M phosphate buffer with 0.2 mM DTPA at pH 7.4, 80% H2O, 10% D2O, and 10% DMSO-d6 at 37° C. under argon. Spectra were collected at the start of the experiment and after complete decomposition.

| Carboxylic Acid relative product yield [2] | NHPY relative product yield [2] | PY (corresponding pyrazolone) relative product yield [2] | half-life ([3]; UV-Vis spectroscopy) | stability on incubation with PY-2 [4] | half-life [3] | formation of NHPY-1 upon decomposition [6] | formation of NHPY-1 upon decomposition ([6]; listed as Compound I) | NHPY-1 yield from decomposition of Compound 1 ([2]; in the absence of PY-2) | acetate yield from decomposition of Compound 1 ([2]; in the absence of PY-2) | SMILES | % HNO ([1]; 20 μM compound) | % HNO ([1]; 100 μM compound) | % HNO ([1]; 500 μM compound) | pKa [5] | HNO yield from decomposition of Compound 1 ([1]; in the absence of PY-2) |
| --- | --- | --- | --- | --- | --- | --- | --- | --- | --- | --- | --- | --- | --- | --- | --- |
| 14 | 86 | 14 | 1.2 min |  |  |  |  |  |  | CO/N=C(\C)C1(ONC(=O)OC)C(=O)N(C)N=C1C (stereo not drawn) [Compound 4, methyl (4-(1-(methoxyimino)ethyl)-1,3-dimethyl-5-oxo-4,5-dihydro-1H-pyrazol-4-yl)oxycarbamate] | 29% | 17% | 8% |  |  |
|  |  |  |  | stability was confirmed |  |  |  |  |  | CON=C(C)C1(N(O)C(C)=O)C(=O)N(c2ccccc2)N=C1C (stereo not drawn) [NHPY-1, N-hydroxy-N-(4-(1-(methoxyimino)ethyl)-3-methyl-5-oxo-1-phenyl-4,5-dihydro-1H-pyrazol-4-yl)acetamide] |  |  |  | 10.0 |  |
|  |  |  |  |  |  |  |  |  |  | CO/N=C(\C)C1(ONC(=O)OC(C)(C)C)C(=O)N(c2ccccc2)N=C1C (stereo not drawn) [Compound 5, tert-butyl (4-(1-(methoxyimino)ethyl)-3-methyl-5-oxo-1-phenyl-4,5-dihydro-1H-pyrazol-4-yl)oxycarbamate] | 35^c % | 26% |  |  |  |
| 27 | 72 | 28 |  |  | 0.6 min |  |  |  |  | CO/N=C(\C)C1(ONC(=O)OC)C(=O)N(c2ccccc2)N=C1C (stereo not drawn) [Compound 3, methyl (4-(1-(methoxyimino)ethyl)-3-methyl-5-oxo-1-phenyl-4,5-dihydro-1H-pyrazol-4-yl)oxycarbamate] | 41% | 29% | 20% |  |  |
| 73 | 26 | 74 | 25 min |  |  | not formed | quantitative | 26% | 73% | CO/N=C(\C)C1(ONC(C)=O)C(=O)N(c2ccccc2)N=C1C (stereo not drawn) [Compound 1, N-((4-(1-(methoxyimino)ethyl)-3-methyl-5-oxo-1-phenyl-4,5-dihydro-1H-pyrazol-4-yl)oxy)acetamide] | 91% | 75% | 70% |  | 70% |
|  |  |  |  |  |  |  |  |  |  | CC(=O)NOC1(C)C(=O)N(c2ccccc2)N=C1C (stereo not drawn) [Compound 2, N-((3,4-dimethyl-5-oxo-1-phenyl-4,5-dihydro-1H-pyrazol-4-yl)oxy)acetamide] | a | a | a |  |  |
